# In patent publication EP0110955B1, “BRAIN-SPECIFIC DRUG DELIVERY” (UNIVERSITY OF FLORIDA, priority 1982, dated 1983):
# What was measured:
# [1] = Enzymatic hydrolytic cleavage and rate of oxidation of compound 5c in human blood (HPLC); type: in vitro ADME; conditions: whole citrated blood, 37°C, pseudo first order, read-out: apparent half-lives for the disappearance
# Description: (§1) A high pressure liquid chromatography (HPLC) method was developed for the studies of the degradation of the dihydropyridine dopamine derivative. The chromatographic analysis was performed on a component system consisting of a Waters Associate Model 6000A solvent delivery system, Model U6K injector and Model 440 dual channel absorbance detector operated at 254 and 280 nm. A 30 cm x 3.9 mm (internal diameter) reverse phase µBondapak C18 column (Waters Associates), operated at ambient temperature, was used for all separations. The mobile phase used for the separation of the dihydropyridine derivative, its degradation products and oxidation products consisted of 0.005 M solution of 1-heptanesul- fonic acid sodium salt (PIC B-7 Eastman Kodak) in CH3CN; 0.01 M aqueous dibasic ammonium phosphate (2.5:1). A peak was always shown at a retention time of 2.2 min which is believed to be a monodeacylated dihydropyridine derivative, since it eventually did result in 6a.
# The freshly collected heparinized blood was obtained at the Civitan Regional Blood Center, Inc. (Gainesville, Florida). The blood was stored in a refrigerator and used the next day. […] When all samples had been collected, they were centrifuged and the supernatants were filtered using Whatman 4 filter paper and analyzed by HPLC.
# [2] = Enzymatic hydrolytic cleavage and rate of oxidation of compound 5c in rat brain homogenate (HPLC); type: in vitro ADME, Sprague-Dawley rats; conditions: rat, pH 7.4; 20% brain homogenate, 37°C, pseudo first order; read-out: apparent half-lives for the disappearance
# Description: as §1
# The brain homogenate was prepared by the following method. Five Sprague-Dawley rats were killed by decapitation and the brains were removed, weighed (total weight 9.85 g) and homogenized in 49.3 ml of aqueous 0.11 M phosphate buffer, pH 7.4. The homogenate was centrifuged and the supernatant was used for the test. […] Each supernatant was filtered through two Whatman 1 filter papers and analyzed by HPLC.
# [3] = Concentration of compound 6a in brain and blood after parenteral administration of 5c; type: in vivo, Male Sprague-Dawley rats; conditions: after administration of 5c, rat
# Description: The dihydropyridine derivative (5c) was then selected for the in vivo study. A solution in DMSO (dimethylsulfoxide) was injected through the jugular vein to a group of male Sprague-Dawley rats which were then sacrificed at various time intervals; their blood and brains were analyzed for the quaternary percursor of dopamine (6a). The in vivo dopaminergic activities of the selected compounds 5c vs. 6a were then determined.
# Male Sprague-Dawley rats of average weight of 150 ± 10g were used. The rats were anesthetized with IM injection of Inovar and the jugular was exposed. Compound 5c was injected intrajugularly in the form of 10% solution in DMSO at a dose of 64.2 mg/kg (equivalent to 50 mg/kg compound 6a). The injection was given at a rate of 24 µl/min using a calibrated infusion pump. […] The weighed brain was homogenized with 0.5 ml of distilled water, 3 ml of acetonitrile was added and the mixture was rehomogenized thoroughly, centrifuged, filtered and then analyzed for compound 6a using the HPLC method. The tubes containing the blood were shaken vigorously, centrifuged, decanted and also analyzed for compound 6a using the HPLC method. Quantitation was done by using a recovery standard curve obtained by introducing a known amount of 6a in either brain homogenate or blood and then treated in the same manner. […]
structure (smiles),measurement,setting,value
"CN1C=CCC(C(=O)NCCc2ccc(OC(=O)C(C)(C)C)c(OC(=O)C(C)(C)C)c2)=C1 [5c, 1-Methyl-3-(N-[β-(3,4-dipivalyloxyphenyl)-ethyl]}carbamoyl-1,4-dihydropyridine]",half-life at 900 µM,[1],18 min
same,half-life at 1800 µM,[2],17 min
same,"formation of O-methyl metabolites (9, 10) in the brain",[3],"No formation of O-methyl metabolites (9, 10) could be detected"
